What was measured:
Type in all cases: in vivo, mouse
anti-dsDNA antibodies = assay: Anti-double-stranded DNA antibodies in serum of MRL/lpr mice (ELISA); conditions: intragastric 25, 50 mg/kg, FIG. 8
Procedure: Normal group, model group, positive medicament (1 mg/kg prednisone) group, naphthoquine phosphate (25, 50 mg/kg) group, hydroxychloroquine sulfate (100 mg/kg) group.
50 μl double-stranded DNA solution (final concentration: 50 μg/ml) was added to each well of a 96-well ELISA plate for coating overnight. The plate was washed 4 times with 200 μl washing solution (1L PBS+500 μl Tween 20) per well. 100 μl 1% BSA was added to each well and blocked for 1 hour. The plate was washed 4 times with 200 μl washing solution per well. 50 μl diluted mouse serum samples of each group were added to each well and incubated for 2 hours. The plate was washed 4 times with 200 μl washing solution per well. Horseradish peroxidase (HRP)-conjugated IgG (H+L) secondary antibodies were added and incubated for 1 hour. The plate was washed 5 times with 200 μl washing solution per well. 50 μl tetramethylbenzidine (TMB) substrate was added, and 30 μl 1M sulfuric acid solution was added to terminate color development based on the condition of color development. Absorbance values at 450 nm/570 nm were read by a microplate reader (Spectra Max 190, Molecular Devices).
At the end of the experiment, eyeballs were removed to collect blood. ELISA method was used to detect the levels of anti-dsDNA antibodies in serum of experimental mice, and the anti-nuclear antibody kit was used to detect the levels of anti-nuclear antibodies. […]

[1] = test system: bovine type II collagen-induced arthritis in mice; assay: Bone morphological analysis by Micro-CT in arthritic mice; conditions: intragastric, FIG. 5
Procedure: (§1) Normal group, model group, positive medicament (1 mg/kg dexamethasone) group, naphthoquine phosphate (25, 50, 100 mg/kg) groups, hydroxychloroquine sulfate (100 mg/kg) group.
(§2) 10 mg of Type II Collagen (CII) was swollen in 2.5 ml of 0.1 mol/L glacial acetic acid to prepare a 4 mg/ml CII solution. This solution was fully emulsified with an equal volume of CFA, and injected subcutaneously (50 μl) at the base of the tail of mice. After 21 days, 4 mg/ml CII solution was fully emulsified with an equal volume of IFA. This mixture was injected subcutaneously (50 μL) at the base of the tail of mice to boost the immune response.
Three-dimensional reconstruction was performed by the micro-CT technology, and bone morphology analysis was performed by professional analysis software.

[2] = test system: purified splenic B cells of arthritic mice; assay: TLRs-L-induced activation of purified splenic B cells from treated arthritic mice; conditions: intragastric 50, 100 mg/kg, FIG. 6
Procedure: Normal group, model group, positive medicament (1 mg/kg methotrexate) group, naphthoquine phosphate (50, 100 mg/kg) group, hydroxychloroquine sulfate (100 mg/kg) group.
Same as those described in Example 5.
At the end of the experiment, spleens of mice in each group were collected, and splenic B cells were purified as described in Example 4. Different TLRs-L were used for stimulation. ^3H-TDR incorporation method was used to detect proliferation, ELISA method was used to detect the levels of IL-6 and antibody secretion, and flow cytometry was used to detect the expressions of CD80, CD86, and CD69.
Suspensions of purified mouse B cells from each group were inoculated into a 96-well plate at 4×10^5/well, and the stimulant TLR4-L (final concentration: 10 μg/ml), TLR7-L (final concentration: 5 μg/ml) or TLR9-L (final concentration: 1 μM) was added. […] 5 ml scintillation fluid was added, and the values of radioactive counts per minute were read on a Beta counter (2450 Microplate Counter, PerkinElmer).
Suspensions of purified mouse B cells from each group were inoculated into a 96-well plate at 4×10^5/well, and the stimulant TLR4-L (final concentration: 10 μg/ml), TLR7-L (final concentration: 5 μg/ml) or TLR9-L (final concentration: 1 μM) was added. […] After the end of the culture, the cell culture supernatants were collected, and the level of IL-6 was measured by ELISA. […]

[3] = test system: spleen and lymph node lymphocytes in arthritic mice; assay: Lymphocyte proliferation of spleen and lymph nodes of arthritic mice (3H-TdR incorporation); conditions: intragastric, cells stimulated ex vivo, FIG. 3
Procedure: as §1, §2
Lymphocyte proliferation in each group was assessed using the ^3H-TdR incorporation method. Lymph nodes […] of mice in each group were isolated to prepare lymphocyte suspensions. The cells were inoculated into each well of a 96-well plate. ConA (final concentration: 5 μg/ml) and LPS (final concentration: 10 μg/ml) were added respectively, and cultured in a 37° C., 5% CO2 incubator for 48 hours. Eight hours before the end of the culture, 25 μl ^3H-TdR and anti-CD3 (final concentration: 5 μg/ml, pre-incubated overnight) were added to each well. The cells were cultured in a 37° C., 5% CO2 incubator for […]. […] 5 ml scintillation fluid was added, and the values of radioactive counts per minute were read on a Beta counter (2450 Microplate Counter, PerkinElmer).

With CC(C)(C)NCc1cc(Nc2ccnc3cc(Cl)ccc23)c2c(c1O)CCCC2.O=P(O)(O)O.O=P(O)(O)O [Naphthoquine Phosphate, Naphthoquine phosphate] the “levels of anti-dsDNA antibodies in serum” value (anti-dsDNA antibodies) was “significantly reduced”, the “bone damage in model mice (Micro-CT)” value [1] was “inhibited” and the “B cell activation, cytokine secretion and antibody production mediated by TLR signaling” value [2] was “significantly inhibited”. The “proliferation of spleen and lymph node lymphocytes in arthritic mice” value [3] was “significantly inhibit”.

Source: US20250332154A1, “USE OF NAPHTHOQUINE PHOSPHATE IN PREPARATION OF A MEDICAMENT FOR TREATING AUTOIMMUNE DISEASES” (SHANGHAI PHARMACEUTICALS INDUSTRY CO., LTD, priority 2022, published 2025)
